# Literature values as cited in patent US12133854B2 (SLAYBACK PHARMA LLC, priority 2021, dated 2024).
# Entries after “also recorded” stand apart in the source; their conditions may differ. Where two headings read alike, the source gives them in different places.
structure (smiles),measurement,setting,value
"CC#C[C@]1(O)CC[C@H]2[C@@H]3CCC4=CC(=O)CCC4=C3[C@@H](c3ccc(N(C)C)cc3)C[C@@]21C [Mifepristone, 11β-(4-dimethylaminophenyl)-17β-hydroxy-17α-(1-propynyl)-estra-4,9-dien-3-one]","Solubility in methanol, chloroform and acetone",,very soluble
same,Solubility in water,,practically insoluble; also recorded: low aqueous solubility
same,Solubility,above pH 2.5,less than 1 mg/mL
same,Solubility,"in acid, pH 1.5",~25 mg/mL
